Source: paper PMC12097015, “Development of MDM2‐Targeting PROTAC for Advancing Bone Regeneration” (Advanced Science, 2025)
One block for each compound: values may come before it.

Legend:
MDM2 [1] = biological target: T1, MDM2 (Homo sapiens, UniProt Q00987); assay: MDM2 degradation by western blot in hBMSCs; format: cell-based; design: endogenous in cells; host or cells: hBMSCs; conditions: for MDM2 degradation (western blot) / decrease in MDM2 levels compared to the basal level: 10 μΜ for 1 h
Protocol: Human Bone Marrow‐derived Mesenchymal Stem Cells (hBMSCs) were provided by Professor Lee's laboratory, and cells from passages four to nine were used for all experiments. hBMSCs were cultured in alpha‐minimum essential medium (Welgene, LM008‐01) supplemented with 10% Fetal Bovine Serum (FBS) (Gibco, US origin, 16000–044) and 1% penicillin/streptomycin (Gibco, 15140‐122).
(§1) After discarding the medium and washing the cells twice with cold dPBS, the cells were collected using a scraper and lysed using RIPA buffer (GenDEPOT, R4200‐010) containing protease and phosphatase inhibitors (GenDEPOT, P3200‐001). The collected samples were centrifuged at 13 200 rpm for 10 min at 4 °C, and the supernatant containing total protein was collected. SDS‐PAGE gels (10–12%) were prepared, and protein samples were mixed with 5X loading buffer containing reducing agent (Biosesang, S2002) and heated at 98 °C for 5 min. Equal amounts of protein samples were loaded onto a gel, separated by electrophoresis, and transferred onto nitrocellulose membranes using a Dry Transfer Stacks Kit (Invitrogen, IB23001). The membrane was blocked with 5% nonfat milk in 1X TBST for 1 h at room temperature to prevent nonspecific binding. The membranes were incubated with primary antibodies specific to the target proteins overnight at 4 °C with gentle shaking. The next day, the membrane was washed three times with TBST at 10 min intervals to remove unbound primary antibodies. The membranes were incubated with secondary antibodies (anti‐rabbit and anti‐mouse) conjugated to horseradish peroxidase (HRP) for 1 h at room temperature. The membrane was washed three times with 1X TBST at 10 min intervals to remove unbound secondary antibodies. After washing, a chemiluminescent substrate (ECL, Millipore, WBULS0100) was applied to the membrane to visualize protein bands using a chemiluminescence detector (for the antibodies used, see Table S2, Supporting Information).
The DC50 and Dmax values were calculated by western blot band quantification according to compound concentrations. The quantification value was normalized to the value relative to the untreated group and calculated using the sigmoidal dose‐response (variable slope) equation in GraphPad Prism.
Target sequence in this assay (Q00987 whole entry): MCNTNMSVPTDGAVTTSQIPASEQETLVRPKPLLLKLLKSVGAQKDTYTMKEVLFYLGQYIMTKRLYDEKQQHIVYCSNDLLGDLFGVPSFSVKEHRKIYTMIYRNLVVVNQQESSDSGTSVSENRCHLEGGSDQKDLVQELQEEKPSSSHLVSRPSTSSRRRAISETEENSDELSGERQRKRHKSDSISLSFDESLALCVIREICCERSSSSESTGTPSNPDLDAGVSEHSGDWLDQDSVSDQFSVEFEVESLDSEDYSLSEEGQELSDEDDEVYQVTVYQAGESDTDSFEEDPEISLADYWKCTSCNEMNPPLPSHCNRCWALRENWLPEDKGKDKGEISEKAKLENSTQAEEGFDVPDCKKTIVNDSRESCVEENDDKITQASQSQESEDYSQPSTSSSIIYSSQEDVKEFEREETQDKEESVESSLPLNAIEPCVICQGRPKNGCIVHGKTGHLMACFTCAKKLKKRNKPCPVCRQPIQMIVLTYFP

EGFP‐MDM2 = assay: EGFP-MDM2 fluorescence / live imaging degradation assay; format: cell-based
Protocol: HeLa cells were cultured in DMEM (Welgene, LM001‐05) supplemented with 10% FBS (Welgene, S001‐07). For transient transfection, the cells were seeded at ≈70% confluence. The following day, transfection was performed using Lipofectamine 3000 (Invitrogen, L3000015) for 24 h according to the manufacturer's protocol. The cells were transfected with 100 ng of EGFP‐MDM2 per well in the 96‐well plate and were transfected with 2 µg of MDM2 WT and 2 µg of HA‐ubiquitin, total 4 µg per well in the 6‐well plate.
To construct the EGFP‐MDM2 plasmid DNA, MDM2 WT was amplified by PCR using specific primers. The PCR products were digested with BamH1 and EcoR1 to generate compatible ends. The plasmid backbone, EGFP‐C1, previously digested with the same enzyme, was ligated into the digested PCR product using T4 ligase (Biolabs, M0202S). The resulting plasmid construct was confirmed using restriction enzyme digestion and DNA sequencing. MDM2 WT (#16233) and HA‐ubiquitin (#18712) were purchased from Addgene (used primer sequences, see Table S2, Supporting Information).
Real‐time Live cell imaging (phase contrast, EGFP fluorescence) was performed to monitor EGFP‐MDM2 intensity at 7 min intervals after compound treatment using Cytation5 (Agilent) laser autofocus conditions to capture EGFP fluorescence to assess intensity. For fluorescence imaging, the cells were fixed using 4% PFA and washed three times with 1X dPBS. Fluorescence imaging was performed using the Cytation5. The intensity of fluorescence was assessed by tracking the fluorescence of individual cells in each image using the Time‐lapse analyzer or ROI measure feature of the Fiji ImageJ software (Version 1.54 h, USA).

MDM2 [2] = biological target: T1, MDM2; assay: Microscale thermophoresis (MST) binding assay; design: made in house; host or cells: E. coli BL21 (DE3); conditions: His-Tag MDM2, n = 3, read-out: dissociation constant (Kd)
Target sequence in this assay (Q00987 whole entry, species assumed): as the sequence (Q00987 whole entry) above
Protocol: E. coli BL21 (DE3) competent cells transformed with pSPEL870 were used to express MDM2 protein.^[ [27] ^] The recombinant strain was cultured in 500 mL 2XYT at 37 °C until the optical density (OD600 ) reached 0.5. Protein expression was induced by adding 0.2 mM isopropyl β‐D‐1‐thiogalactopyranoside (IPTG; Bioshop, Canada) at 20 °C overnight. […] The protein was purified using Ni‐NTA resin (Qiagen, Germany), according to the manufacturer's protocol. The purified protein was buffer exchanged with phosphate‐buffered saline (PBS, pH 7.4) using a centrifugal filter unit (MWCO: 10 K; Merck Millipore, USA). The protein was stored at –20 °C in PBS with 20% glycerol and 1 mM dithiothreitol (DTT).
The His‐Tag MDM2 protein was labeled using a His‐Tag Labeling Kit RED‐tris‐NTA second Generation (NanoTemper, MO‐L018) according to the manufacturer's instructions. […] The final mixtures were transferred to capillaries (NanoTemper, MO‐K022) and the samples were measured using a Monolith NT.115Pico (NanoTemper) instrument (auto LED power; medium MST power). […] The signals were represented as normalized changes in fluorescence (Fnorm ) upon ligand binding. Baseline‐corrected normalized fluorescence (DFnorm ) was obtained from Fnorm values using MO Affinity Analysis, and the dissociation constants (Kd ) were determined by curve fitting (variable slope model) using GraphPad Prism 10.

MDM2 [3] = biological target: T1, MDM2; assay: Immunoblot with the intracellular proteasome system blocked by a proteasome inhibitor; format: cell-based; conditions: 0.5–2 μΜ carfilzomib with PROTAC
Protocol: as §1, with “After washing, a chemiluminescent substrate (ECL, Millipore, WBULS0100) was applied to the membrane to visualize protein bands using a chemiluminescence detector (for the antibodies used, see Table S2, Supporting Information).” left out
Target sequence in this assay (Q00987 whole entry, species assumed): as the sequence (Q00987 whole entry) above

[4] = tested on: OVX-induced osteoporosis model; assay: Ovariectomy (OVX)-induced osteoporosis mouse model; format: in vivo, C57BL6 mice; conditions: OVX mice
Protocol: -Establishment of Ovariectomized Mice Model: The experimental protocols were approved by the IACUC (Approval code: IACUC230118) at the CHA Laboratory Animal Research Center. The mice were handled in compliance with the Guidelines for the Care and Use of Animals at the institution. Female C57BL6 mice (seven weeks old (n = 57)) were randomly divided into six groups (n = 8-10): […] All surgeries and pump implantations were performed under aseptic conditions. Mice were anesthetized before removing both sides of the ovaries. In the fourth week following surgery, an Alzet osmotic pump (Durect Corp, #1004) was implanted in the mice. […] Images were acquired at an effective pixel size of 50 μm (130 kV and 60 μA radiation source; 1.0 mm aluminum filter). Subsequently, 3D images were reconstructed from the 2D X-ray projections by implementing the Feldkamp algorithm, and appropriate image corrections, including ring artifact correction, beam hardening correction, and fine-tuning, were processed using NRecon software (SkyScan 1173, Belgium). The dynamic image range (contrast limits) was determined at 0-0.3 in units of attenuation coefficient and was applied to all datasets for optimum image contrast. After acquisition and reconstruction of the datasets, images were first reoriented on each 3D plane using DataViewer software (SkyScan 1173, Belgium) to align the long axis of the femur parallel to the coronal and sagittal planes. Next, 3D morphometric analyses of the distal femur and body of the lumbar vertebrae were performed using CT-Analyzer software (SkyScan 1173, Belgium). Regarding the region of interest (ROI), this work analyzed the 1.5 mm […] trabecular bone of the distal femur metaphysis, excluding the growth plate. The ROIs were delineated using a freehand drawing tool while maintaining a […] clearance from the endosteal surface. […] A global threshold of 60 (1.01573 g cm^-3) was applied to all scans to extract a physiologically accurate representation of the trabecular bone phase. […] All quantitative and structural parameters followed the nomenclature and units recommended by the American Society for Bone and Mineral Research (ASBMR) Histomorphometry Nomenclature Committee. After data quantification,^[ [26b] ^] 3D rendered images were generated to visualize the analyzed regions using the marching cube method. -H&E staining: Following decalcification, the specimens were fixed in paraffin and longitudinally sliced to a thickness of 3 μm using a microtome. Subsequently, each sample was affixed to a slide and exposed to a temperature of 55 °C. […] The slides underwent a 1 min wash in flowing purified water and immersed in Harris hematoxylin-I for 5 min, followed by a 1 min wash under flowing tap water. Sections were briefly immersed in ammonia water for 30 s and washed with tap water for 3 min. Subsequently, the sections were stained with Eosin Y for 2 min and 30 s, followed by gradual drying in 95%-100% ethanol. Any residual stain was rinsed with distilled water and each section was mounted. -Masson's trichrome staining: Following deparaffinization and hydration, the sections underwent treatment with a mordant containing a 5% iron alum solution in a dry oven at 56 °C for 30 min. Sections were washed under running tap water for 5-6 min to remove picric acid. Sections were stained with Weigert's iron hematoxylin solution for 10 min, followed by rinsing with purified water. A 5 min staining with Biebrich scarlet-acid fuchsin solution ensued, succeeded by washing with purified water. The sections were immersed in a phosphomolybdic-phosphotungstic acid solution for 5 min. After discarding the solution, the sections were washed with distilled water. Differentiation was performed in 1% glacial acetic acid solution for 3 min. The solution was discarded, and the remaining stain was washed with distilled water.

hBMSCs [5] = assay: Cell viability / apoptosis of hBMSCs; format: cell-based, human
hBMSCs [6] = assay: Calcium deposit staining (X-Rhod-1) in hBMSCs; format: cell-based, human; conditions: X‐Rhod‐1, p < 0.05
Protocol: hBMSCs were differentiated in the presence of the 10 mM β‐glycerophosphate (Sigma‐Aldrich, G9422) and 50 µM ascorbic acid (Sigma‐Aldrich, A4403) in culture medium for 10 d. Subsequently, the cells were fixed with 4% PFA for 30 min, followed by two washes with Mg^2+‐and Ca^2+‐free dPBS (Welgene, LB‐204). To stain for calcium, X‐Rhod‐1 (Invitrogen, X14210) dye was diluted in Mg^2+‐and Ca^2+‐free dPBS at a concentration of 1 µM and incubated at room temperature in the dark for 1 h. The cells were then washed five times with Mg^2+‐and Ca^2+‐free dPBS at 10 min intervals. The samples were observed under a Cytation5 microscope (Agilent Technologies) at a wavelength of 595 nm.

osteocalcin (OCN) = assay: Immunostaining of osteogenic markers in hBMSCs; format: cell-based, human; conditions: 10 µM
[7] = alendronate comparison study, 0.5 mg kg^−1, n = 6

Structure (SMILES): O=C1CCC(N2Cc3c(C#CCCCNC(=O)c4ccc(NC(=O)[C@@H]5NC6(CCCCC6)[C@@]6(C(=O)Nc7cc(Cl)ccc76)[C@H]5c5cccc(Cl)c5F)cc4)cccc3C2=O)C(=O)N1 (stereo partly drawn) [MD224, reference compound]
degradation efficiency of EGFP‐MDM2 by concentration (EGFP‐MDM2; low concentrations (0.01–0.1 µM) versus higher concentrations (1–10 µM)): greater degradation efficiency of EGFP‐MDM2 compared to higher concentrations

Structure (SMILES): CC(C)C[C@H](NC(=O)[C@H](CCc1ccccc1)NC(=O)CN1CCOCC1)C(=O)N[C@@H](Cc1ccccc1)C(=O)N[C@@H](CC(C)C)C(=O)[C@@]1(C)CO1 [carfilzomib]
effect on PROTAC-induced MDM2 proteolysis (MDM2 [3]): blocked the efficacy of PROTAC in a dose‐dependent manner

Structure (SMILES): NCCCC(O)(P(=O)(O)O)P(=O)(O)O [alendronate, reference compound]
increase in trabecular thickness (Tb.Th) relative to the OVX group [4, 7]: 17.07%
recovery in BV/TV relative to the OVX group [4, 7]: 38.66%

Structure (SMILES): COc1ccc(C2=N[C@@H](c3ccc(Cl)cc3)[C@@H](c3ccc(Cl)cc3)N2C(=O)N2CCNC(=O)C2)c(OC(C)C)c1 [Nutlin-3, reference compound]
cell viability (hBMSCs [5]): without adversely affecting cell viability
calcium deposits compared to the control group (hBMSCs [6]): significantly increased
osteocalcin (OCN) protein intensity compared to the control group (osteocalcin (OCN)): no statistically significant difference
bone histology (H&E staining) versus OVX group ([4]; tibia and femur tissues): no significant differences

The next lines start with results.

MDM2 degradation (western blot) (MDM2 [1]): did not induce the degradation of MDM2
Structure (SMILES): COc1ccc(C2=N[C@@H](c3ccc(Cl)cc3)[C@@H](c3ccc(Cl)cc3)N2C(=O)N2CCN(CC(=O)NCCOCCOCCNC(=O)CN3CCN(C(=O)N4C(c5ccc(OC)cc5OC(C)C)=N[C@H](c5ccc(Cl)cc5)[C@@H]4c4ccc(Cl)cc4)CC3=O)C(=O)C2)c(OC(C)C)c1 [CL117]

MDM2 degradation (western blot) (MDM2 [1]): effectively decreased MDM2 levels
decrease in MDM2 levels compared to the basal level (MDM2 [1]): over 80%
maximal degradation concentration (Dmax) (MDM2 [1]; quantified western blot, 1 nM to 50 µM, n = 2): 0.5 μΜ
DC50 (MDM2 [1]; quantified western blot, 1 nM to 50 µM, n = 2, read-out: half‐maximal degradation concentration (DC50)): 60 nM
Kd (MDM2 [2]): 1270 nM
Structure (SMILES): COc1ccc(C2=NC(c3ccc(Cl)cc3)C(c3ccc(Cl)cc3)N2C(=O)N2CCN(CC(=O)NCCCCCCCC#Cc3cccc4c3C(=O)N(C3CCC(=O)NC3=O)C4=O)C(=O)C2)c(OC(C)C)c1 (stereo not drawn) [CL174]
concentration at which maximum degradation efficiency was achieved (EGFP‐MDM2; live imaging, 0.01 to 10 µM): 1 µM
nuclear EGFP signal (EGFP‐MDM2; live imaging, treatment for 4 h): almost completely turned off the nuclear EGFP signal

MDM2 degradation (western blot) (MDM2 [1]): did not induce the degradation of MDM2
Structure (SMILES): COc1ccc(C2=N[C@H](c3ccc(Cl)cc3)[C@H](c3ccc(Cl)cc3)N2C(=O)N2CCN(CC(=O)OC(C)(C)C)C(=O)C2)c(OC(C)C)c1 [CL139]

decrease in MDM2 levels compared to the basal level (MDM2 [1]): over 80%
Structure (SMILES): COc1ccc(C2=N[C@H](c3ccc(Cl)cc3)[C@H](c3ccc(Cl)cc3)N2C(=O)N2CCN(CC(=O)NCCCCCCCCCCCOc3cccc4c3C(=O)N(C3CCC(=O)NC3=O)C4=O)C(=O)C2)c(OC(C)C)c1 (stereo partly drawn) [CL145]
